{"source": "patent US20050208125A1", "about": "“Substantially pure solid form of the enol tautomer of 3-indolypyruvic acid for use in the treatmetn of central nervous system disturbances” (priority 2002, published 2005)", "key": {"[1]": {"test": "Incubation in rat tissue homogenates, enol form versus keto form", "type": "in vitro ADME", "settings": "pH 7.4, rat tissue homogenates", "source_text": "(§1) The near-pure enol tautomer of 3-indolylpyruvic acid, obtained by the method described above in examples 1 and 2, was investigated on rat tissue homogenates, in order to highlight its participation in the methabolic pathways characterizing the use of tryptophan and of its derivatives in mammalian cells. […] This phenomenon, ascribed to the presence in biological fluids of a specific tautomerase already reported in literature, allows the enol form to be subjected to biochemical transformations by specific enzymes active on the indoles. In particular, when the enol form of the ketoacid is incubated in rat liver homogenates, a gradual transformation of the enol of 3-indolylpyruvic acid in tryptophan is observed: the transformation is rather linear in time, is independent from the pH—at least in the 6.5÷7.5 interval—and it leads to the conversion of over the 50% of the ketoacid in 5 hours."}, "[2]": {"test": "Plasma levels in dogs after administration in food-mixed pellets", "type": "in vivo", "settings": "dog, oral", "protocol": "In dogs as well analogous results were obtained, as the administration (in food-mixed pellets) of 100 mg/Kg enol form of 3-indolylpyruvic acid led, at +1 hour, to plasma rates of 106±47 -mcg/ml in acute, and of 97±17 mcg/ml in chronic. 285 mg/Kg doses produced, at +1 hour,concentrations of 136±17 mcg/ml in acute, and of 120±8 mcg/ml in chronic."}, "[3]": {"test": "Incubation in rat liver homogenates", "type": "in vitro ADME", "source_text": "as §1, with “a gradual transformation of the enol of 3-indolylpyruvic acid in tryptophan is observed: the transformation” left out"}, "[4]": {"tested_on": "rats", "test": "Pharmacological tests in rats, oral and IP", "type": "in vivo, rat"}, "[5]": {"tested_on": "superoxide anion", "test": "Neutralizing power towards oxygen free radicals", "type": "biochemical", "settings": "contrarily to the keto tautomer form", "protocol": "(§2) It is already known from literature that the 3-indolylpyruvic acid may function, in suitable methabolic situations, as direct precursor to the kynurenic acid, the most important endogenous inhibitor of the excitatory amino acids. […] Therefore, comparison tests were conducted between the enol form of 3-indolylpyruvic acid, obtained according to the method described above in examples 1 and 2, the keto form (obtained solubilizing a standard preparation of 3-indolylpyruvic acid obtained from commercial sources in 0.1M NaOH), and a mixture of the two forms (obtained solubilizing the above standard preparation in a pH 7.4 phosphate buffer). […] Moreover, the enol form is found to be 100 to 1000 times more powerful than the keto one, both in protecting membrane phospholipids from degradation and in blocking luminol chemiluminescence induced by a xanthin/xanthin oxidase mixture. Concerning the formation of kynurenic acid, under the same experimental conditions the enol form of 3-indolylpyruvic acid always produced from 20 to 100 times more kynurenic acid than the keto form or the mixture of the two forms. […] Concomitantly, kynurenic acid began to form, reaching a plasma peak at +90-+180 min from the enol injection, with remarkable interindividual variations."}, "[6]": {"test": "Intravenous injection in baboons, enol and kynurenic acid plasma kinetics", "type": "in vivo, baboon", "settings": "intravenously, 200 mg/Kg", "protocol": "as §2"}, "[7]": {"test": "Solubility of the enol form in solvents", "type": "physicochemical"}, "[8]": {"tested_on": "Human melanoma cells (A2058 line)", "test": "Melanoma cell invasion through Matrigel", "type": "cell-based", "settings": "Homo sapiens, mean of three experiments ± SD", "source_text": "Matrigel is an extracellular biological matrix extracted from the Englebreth-Holm-Swarm murine sarcoma, composed of the major components of the basement membrane like laminin, entactin, collagen IV and proteoglycans. At room temperature, Matrigel forms a gel that can promote the growth of primary and continuous cell lines, and moreover can act as medium (substrate) for the adhesion, the differentiation, the migration and the invasion of tumor cell lines. Due to such features, a Matrigel test is commonly used in order to characterize the activity of substances capable of interfering with the motility of tumor cells and of inflammatory response cells. The test is conducted in wells partitioned by an 8 micron pore size membrane: Matrigel (12.4 micrograms) is uniformly spread on the membrane, whereas a chemoattractant (600 microliters), consisting of the supernatant of a murine hembryo cell line (3T3) is inserted in the bottom section of the well. The cells to be tested are seeded in the top section of the well, whereas the compounds that could interfere with their motility are placed above as well as below the membrane, so as to prevent the formation of a concentration gradient. At the end of the experiment, the cells that have crossed the membrane are counted.\nHuman melanoma cells (A2058 line) were cultured in MEM medium, in a 5% CO2 at 37° C. Having reached the desired growth level, the (100.000) cells were seeded in the top section of the well. The enol of 3-indolylpyruvic acid and its salts, solubilized in the cell culture medium were placed in the top and bottom section of the well."}, "[9]": {"test": "Stability of the enol form in solution (UV 325 nm peak, HPLC)", "type": "physicochemical", "source_text": "When the enol tautomer of 3-indolylpyruvic acid is solubilized in an aqueous environment, the decline of the UV peak at 325 nm, more or less quick according to the solution temperature, the pH and the type of buffer used is immediately observed. […] In the experimental conditions used, a quicker disappearance of the 325 nm peak is observed when the enol tautomer of the ketoacid is solubilized in diluted NaOH solutions; it follows that in this solvent the keto-enol equilibrium shifts towards the keto form in a few seconds.\nAt longer incubation times also the gem-diole form disappears, without giving rise to the keto form.\nIn particular, using a phosphate solution at pH 7.4, it is observed that the enol form drops to the 44% already at +30 min, whereas the gem-diole form begins to predominate (increase) at +1 hour (44% vs 23%), yet it stabilizes at about +2 hours (49%), and then gradually declines."}, "[10]": {"test": "Plasma levels in rats after gastric lavage", "type": "in vivo", "settings": "rat, oral, read-out: plasma level", "protocol": "Raising the dose to 400 mg/Kg, values of 160±13 mcg/ml for acute administration and of 189±68 mcg/ml for chronic administration were obtained."}, "[11]": {"tested_on": "LAN5 human neuroblastoma cells", "test": "Neuronal cell sprouting (neurite length)", "type": "cell-based", "settings": "10 μM, 7 days, ± SD, untreated 21.8 ± 8.8", "protocol": "LAN5 human neuroblastoma cells were seeded in 6-well plates (25.000 cells/well) in DMEM (Dulbecco's Modified Eagle's Medium) medium, additioned with 10% -fetal serum and 40 micrograms/ml gentamycin. After 24 hours, the enol tautomer of 3-indolylpyruvic acid or its derivatives, at an end concentration of 10 μM was added to the culture medium. The treatment was continued for 7 days, with medium replacement and addition of the compound under test every three days. At +7 days the cells were photopgraphed, using a Leitz Dialux 20 microscope. Then, neurite length was measured.\nThe results, reported in the following Table, express, in microns, the average length of the neurites for each treatment; ± is the standard deviation: […]"}, "[12]": {"settings": "phosphate solution pH 7.4, +1 hour"}}, "note": "Read-outs that look alike come from different tables or passages of the source."}
{"smiles": "O=C(O)/C(O)=C/c1c[nH]c2ccccc12", "note": "[3-IPA ENOL, enol tautomer of 3-indolylpyruvic acid]", "values": [{"measurement": "stability in slightly alkaline buffer environments", "setting": "[1]", "value": "good stability"}, {"measurement": "concentration at 1 h", "setting": "[2]; 100 mg/kg, chronic, read-out: plasma rate", "value": "97 ± 17", "unit": "µg/mL"}, {"measurement": "concentration at 1 h", "setting": "[2]; 100 mg/kg, food-mixed pellets, 100 mg/Kg, acute, read-out: plasma rate", "value": "106 ± 47", "unit": "µg/mL"}, {"measurement": "concentration at 1 h", "setting": "[2]; 285 mg/kg, acute, read-out: plasma concentration", "value": "136 ± 17", "unit": "µg/mL"}, {"measurement": "concentration at 1 h", "setting": "[2]; 285 mg/kg, chronic, read-out: plasma concentration", "value": "120 ± 8", "unit": "µg/mL"}, {"measurement": "transformation into 3-indolyl-lactic acid", "setting": "[3]", "value": "No transformation"}, {"measurement": "observed effects compared with the mixture of the two tautomers", "setting": "[4]; mixture in pH 7.4 phosphate buffer", "value": "clearly superior"}, {"measurement": "pharmacological properties on the cardiovasculary system", "setting": "[4]; orally and by IP injection", "value": "pressure reduction in hypertensive rats, but not in normotensive rats"}, {"measurement": "pharmacological properties on the central nervous system", "setting": "[4]; orally and by IP injection", "value": "prolongation of sleep, central analgesia, protection from NMDA-induced convulsions, reduction of toxic effects from opiates, anxiolytic and antidepressant effects, stress inhibition"}, {"measurement": "neutralizing power towards superoxide anion and hydroxyl ions", "setting": "[5]", "value": "strong neutralizing power"}, {"measurement": "enol plasma concentration curve", "setting": "[6]", "value": "remaining at clearly detectable levels for a few hours"}, {"measurement": "solubility in acetone", "setting": "[7]; acetone", "value": "highly soluble"}, {"measurement": "solubility in chloroform", "setting": "[7]; chloroform", "value": "wholly insoluble"}, {"measurement": "solubility in ethanol", "setting": "[7]; ethanol", "value": "highly soluble"}, {"measurement": "solubility in ethyl ether", "setting": "[7]; ethyl ether", "value": "slightly soluble"}, {"measurement": "solubility in methanol", "setting": "[7]; methanol", "value": "highly soluble"}, {"measurement": "solubility in water", "setting": "[7]; water", "value": "wholly insoluble"}, {"measurement": "inhibition at 125 µM", "setting": "[8]; 125 μM", "value": "44 ± 5", "unit": "%"}, {"measurement": "inhibition at 250 µM", "setting": "[8]; 250 μM", "value": "77 ± 11", "unit": "%"}, {"measurement": "inhibition at 500 µM", "setting": "[8]; 500 μM", "value": "97 ± 2", "unit": "%"}, {"measurement": "time in which keto-enol equilibrium shifts towards the keto form", "setting": "[9]; diluted NaOH solutions", "value": "a few seconds"}, {"measurement": "stability in methanol", "setting": "[9]; methanol, several days at room temperature", "value": "extremely stable"}, {"measurement": "enol form remaining", "setting": "[9]; phosphate solution pH 7.4, +30 min", "value": 44, "unit": "%"}, {"measurement": "enol form remaining", "setting": "[9]; [12]", "value": 23, "unit": "%"}, {"measurement": "gem-diole form formed", "setting": "[9]; [12]", "value": 44, "unit": "%"}, {"measurement": "gem-diole form formed", "setting": "[9]; phosphate solution pH 7.4, about +2 hours", "value": "~49", "unit": "%"}, {"measurement": "concentration at 1 hour", "setting": "[10]; 100 mg/kg, chronic", "value": "183 ± 78", "unit": "µg/mL"}, {"measurement": "concentration at 1 h", "setting": "[10]; 100 mg/kg, gastric lavage, 100 mg/Kg, acute, +1 hour", "value": "74 ± 14", "unit": "µg/mL"}, {"measurement": "concentration at 1 hour", "setting": "[10]; 400 mg/kg, acute", "value": "160 ± 13", "unit": "µg/mL"}, {"measurement": "concentration at 1 hour", "setting": "[10]; 400 mg/kg, chronic", "value": "189 ± 68", "unit": "µg/mL"}, {"measurement": "average length of the neurites", "setting": "[11]", "value": "31.9 ± 6.8", "unit": "micrometers"}]}
